# Data as given in patent US9073940B2, “Tricyclic pyrazol amine derivatives” (MERCK SERONO SA, priority 2009, dated 2015).
# System: 4 PI3K isoforms (Human recombinant GST-PI3K)
# Assay: PI3K scintillation proximity assay, best IC50 obtained with the four isoforms (alpha, beta, delta, gamma)
# Format: biochemical
# Conditions: best IC50 obtained with the four isoforms of PI3K; read-out: Best potency measured on the 4 PI3K isoforms
row,Compound,IC50
1,"COc1cccc(-n2nc(C(=O)N3CCOCC3)c3c2-c2ccccc2S(=O)(=O)C3)c1 [Example 9, 1-(3-methoxyphenyl)-3-(morpholin-4-ylcarbonyl)-1,4-dihydrothiochromeno[4,3-c]pyrazole 5,5-dioxide]",1.32 µM
2,"COc1ccc(-n2nc(C(=O)N3CCOCC3)c3c2-c2ccccc2S(=O)(=O)C3)cc1 [Example 10, 1-(4-methoxyphenyl)-3-(morpholin-4-ylcarbonyl)-1,4-dihydrothiochromeno[4,3-c]pyrazole 5,5-dioxide]",0.749 µM
3,"O=C(c1nn(-c2ccccn2)c2c1CS(=O)(=O)c1ccccc1-2)N1CCOCC1 [Example 11, 3-(morpholin-4-ylcarbonyl)-1-pyridin-2-yl-1,4-dihydrothiochromeno[4,3-c]pyrazole 5,5-dioxide]",1.59 µM
4,"Cn1nc(C(=O)N2CCOCC2)c2c1-c1cccc(F)c1S(=O)(=O)C2 [Example 14, 6-fluoro-1-methyl-3-(morpholin-4-ylcarbonyl)-1,4-dihydrothiochromeno[4,3-c]pyrazole 5,5-dioxide]",0.687 µM
5,"Cn1nc(C(=O)N2CCOCC2)c2c1-c1cc(F)ccc1S(=O)(=O)C2 [Example 16, 8-fluoro-1-methyl-3-(morpholin-4-ylcarbonyl)-1,4-dihydrothiochromeno[4,3-c]pyrazole 5,5-dioxide]",2.21 µM
6,"O=C(c1nn(-c2ccccc2)c2c1CS(=O)(=O)c1ccc(F)cc1-2)N1CCOCC1 [Example 17, 8-fluoro-3-(morpholin-4-ylcarbonyl)-1-phenyl-1,4-dihydrothiochromeno[4,3-c]pyrazole 5,5-dioxide]",0.987 µM
7,O=C(c1nn(-c2ccccc2)c2c1CS(=O)(=O)c1c(Br)cccc1-2)N1CCOCC1 [Example 18],0.494 µM
8,"Cc1ccccc1-n1nc(C(=O)N2CCOCC2)c2c1-c1ccccc1S(=O)(=O)C2 [Example 19, 1-(2-methylphenyl)-3-(morpholin-4-ylcarbonyl)-1,4-dihydrothiochromeno[4,3-c]pyrazole 5,5-dioxide]",2.29 µM
9,"O=C(c1nn(-c2ccccc2Br)c2c1CS(=O)(=O)c1ccccc1-2)N1CCOCC1 [Example 20, 1-(2-bromophenyl)-3-(morpholin-4-ylcarbonyl)-1,4-dihydrothiochromeno[4,3-c]pyrazole 5,5-dioxide]",5.5 µM
10,"O=C(c1nn(-c2ccccc2F)c2c1CS(=O)(=O)c1ccccc1-2)N1CCOCC1 [Example 21, 1-(2-fluorophenyl)-3-(morpholin-4-ylcarbonyl)-1,4-dihydrothiochromeno[4,3-c]pyrazole 5,5-dioxide]",2 µM
11,"O=C(c1nn(-c2ccccc2Cl)c2c1CS(=O)(=O)c1ccccc1-2)N1CCOCC1 [Example 22, 1-(2-chlorophenyl)-3-(morpholin-4-ylcarbonyl)-1,4-dihydrothiochromeno[4,3-c]pyrazole 5,5-dioxide]",4.02 µM
12,"O=C(c1nn(-c2ccc3c(c2)OCCO3)c2c1CS(=O)(=O)c1ccccc1-2)N1CCOCC1 [Example 23, 1-(2,3-dihydro-1,4-benzodioxin-6-yl)-3-(morpholin-4-ylcarbonyl)-1,4-dihydrothiochromeno[4,3-c]pyrazole 5,5-dioxide]",0.67 µM
13,"Cc1nc2ccc(-n3nc(C(=O)N4CCOCC4)c4c3-c3ccccc3S(=O)(=O)C4)cc2s1 [Example 24, 1-(2-methyl-1,3-benzothiazol-6-yl)-3-(morpholin-4-ylcarbonyl)-1,4-dihydrothiochromeno[4,3-c]pyrazole 5,5-dioxide]",0.662 µM
14,"O=C(c1nn(-c2cccc(Br)c2)c2c1CS(=O)(=O)c1ccccc1-2)N1CCOCC1 [Example 25, 1-(3-bromophenyl)-3-(morpholin-4-ylcarbonyl)-1,4-dihydrothiochromeno[4,3-c]pyrazole 5,5-dioxide]",0.616 µM
15,"O=C(c1nn(-c2cccc(Cl)c2)c2c1CS(=O)(=O)c1ccccc1-2)N1CCOCC1 [Example 26, 1-(3-chlorophenyl)-3-(morpholin-4-ylcarbonyl)-1,4-dihydrothiochromeno[4,3-c]pyrazole 5,5-dioxide]",0.44 µM
16,"O=C(c1nn(-c2ccc(Br)cc2)c2c1CS(=O)(=O)c1ccccc1-2)N1CCOCC1 [Example 27, 1-(4-bromophenyl)-3-(morpholin-4-ylcarbonyl)-1,4-dihydrothiochromeno[4,3-c]pyrazole 5,5-dioxide]",1.12 µM
17,"O=C(c1nn(-c2ccc(F)cc2)c2c1CS(=O)(=O)c1ccccc1-2)N1CCOCC1 [Example 28, 1-(4-fluorophenyl)-3-(morpholin-4-ylcarbonyl)-1,4-dihydrothiochromeno[4,3-c]pyrazole 5,5-dioxide]",0.373 µM
18,"O=C(c1nn(-c2ccc(Cl)cc2)c2c1CS(=O)(=O)c1ccccc1-2)N1CCOCC1 [Example 29, 1-(4-chlorophenyl)-3-(morpholin-4-ylcarbonyl)-1,4-dihydrothiochromeno[4,3-c]pyrazole 5,5-dioxide]",0.895 µM
19,"CC(C)c1ccc(-n2nc(C(=O)N3CCOCC3)c3c2-c2ccccc2S(=O)(=O)C3)cc1 [Example 30, 1-(4-isopropylphenyl)-3-(morpholin-4-ylcarbonyl)-1,4-dihydrothiochromeno[4,3-c]pyrazole 5,5-dioxide]",1.47 µM
20,"Cc1ccncc1-n1nc(C(=O)N2CCOCC2)c2c1-c1ccccc1S(=O)(=O)C2 [Example 31, 1-(4-methylpyridin-3-yl)-3-(morpholin-4-ylcarbonyl)-1,4-dihydrothiochromeno[4,3-c]pyrazole 5,5-dioxide]",4.04 µM
21,"O=C(c1nn(C2CCOCC2)c2c1CS(=O)(=O)c1ccccc1-2)N1CCOCC1 [Example 32, 3-(morpholin-4-ylcarbonyl)-1-(tetrahydro-2H-pyran-4-yl)-1,4-dihydrothiochromeno[4,3-c]pyrazole 5,5-dioxide]",0.223 µM
22,"Cn1nc(C(=O)N2CCOCC2)c2c1-c1cc([N+](=O)[O-])ccc1S(=O)(=O)C2 [Example 35, 1-methyl-3-(morpholin-4-ylcarbonyl)-8-nitro-1,4-dihydrothiochromeno[4,3-c]pyrazole 5,5-dioxide]",2.77 µM
23,"O=C(c1nn(-c2ccccc2)c2c1CS(=O)(=O)c1ccc([N+](=O)[O-])cc1-2)N1CCOCC1 [Example 36, 3-(morpholin-4-ylcarbonyl)-8-nitro-1-phenyl-1,4-dihydrothiochromeno[4,3-c]pyrazole 5,5-dioxide]",1.83 µM
24,"O=C(c1nn(Cc2ccccc2)c2c1CS(=O)(=O)c1ccccc1-2)N1CCOCC1 [Example 40, 1-benzyl-3-(morpholin-4-ylcarbonyl)-1,4-dihydrothiochromeno[4,3-c]pyrazole 5,5-dioxide]",1.19 µM
25,"O=C(c1nn(CCc2ccccc2)c2c1CS(=O)(=O)c1ccccc1-2)N1CCOCC1 [Example 41, 3-(morpholin-4-ylcarbonyl)-1-(2-phenylethyl)-1,4-dihydrothiochromeno[4,3-c]pyrazole 5,5-dioxide]",1.44 µM
26,"CN(C)CCn1nc(C(=O)N2CCOCC2)c2c1-c1ccccc1S(=O)(=O)C2 [Example 42, N,N-dimethyl-2-[3-(morpholin-4-ylcarbonyl)-5,5-dioxidothiochromeno[4,3-c]pyrazol-1(4H)-yl]ethanamine]",1.51 µM
27,"COCCCn1nc(C(=O)N2CCOCC2)c2c1-c1ccccc1S(=O)(=O)C2 [Example 44, 1-(3-methoxypropyl)-3-(morpholin-4-ylcarbonyl)-1,4-dihydrothiochromeno[4,3-c]pyrazole 5,5-dioxide]",0.907 µM
